d = 2'-deoxy (DNA); r = 2'-OH (RNA)
Assays:
Type in all cases: cell-based, human
[1] = test system: JAG1; test: Immunoblotting of JAG1 after siRNA transfection (silencing efficiency); settings: RDEB-FBs; for JAG1 expression levels (immunoblotting): 48 h after transfection, absence of TGF-β1, vs Scramble
Source text: Transfection of short interfering RNAs targeting Jagged 1. Two candidate short interfering RNA (siRNA) sequences complementary to different regions of the human JAG1 mRNA, si-JAG1-1 and si-JAG1-2, were chosen to be functionally evaluated in the context of transfection experiments. siJAG1-1 and siJAG1-2 sequences are indicated below: 5′-GAAUGUGAGGCCAAACCUU[dT][dT]-3′ (SEQ ID NO:1) (si-JAG1-1, cod. SASI_Hs01_00100441) and 5′-CCUGUAACAUAGCCCGAAA[dT][dT]-3′ (SEQ ID NO:2) (si-JAG1-2, cod. SASI_Hs01_00100442). Both siRNAs were purchased from Merck (Merck, Darmstadt, Germany). Lipofectamine 2000 (Thermo Fisher Scientific, Waltham, MA, USA) was used to transfect siRNAs, following manufacturer's protocol. After 48 h, the silencing efficiency of the two candidate siRNAs was assessed by immunoblotting (IB) (FIG. 2). […] Accordingly, si-JAG1-2, throughout the text indicated as si-JAG1, was selected for all downstream silencing experiments. The MISSION® siRNA Universal Negative Control #1 (Merck) was used as negative control for siRNA transfections.
(§1) Whole-cell lysates were obtained in radioimmunoprecipitation assay (RIPA) buffer (Sigma-Aldrich) supplemented with phosphatase- and protease inhibitors (Merck). Different amounts of protein lysates were run under reducing conditions by using 4-12% gradient precast gels (Thermo Fisher Scientific) or hand-casting polyacrylamide gels (4-8%), depending on the protein to be assayed. Amersham™ Protran® Premium nitrocellulose membranes (pore size 0.2 μm) (Merck) were immunoblotted with primary antibodies indicated in Table 3 and incubated with horseradish peroxidase-linked secondary antibodies.

[2] = test system: primary fibroblasts from RDEB patients (RDEB-FBs); test: Collagen lattice contraction (CLC) assay; settings: RDEB-FBs vs Scramble siRNA, with and without TGF-β1
Experimental: RDEB-FBs (5×10^5 cells) were mixed in a collagen buffer and seeded into 12-well plates as previously described. After gelation, fibroblast-populated collagen lattices were detached from the wells and left floating. RDEB-FBs were treated with 20 μM of DAPT and PF-03804014 in DMEM containing 0.1% BSA, in the presence or absence of TGF-β1 at 2 ng/mL, as contraction booster. JAG1-silenced RDEB-FBs were embedded in collagen lattices 24 h after siRNA transfection. In both cases, images were acquired with ChemiDoc™ XRS+ System (Bio-Rad, Hercules, CA, USA) at the detachment of collagen lattices from the wells (time 0, TO) and after 48 h. Gel areas were measured by ImageJ software and photos at TO were used as references.

[3] = test system: α-SMA, TAGLN, CNN1, JAG1; test: Immunoblotting of myofibroblast/fibrotic markers in RDEB fibroblasts; settings: RDEB-FBs vs Scramble, treated or not with TGF-β1
Source text: as §1
Detection was performed using Cytiva ECL™ Prime Western Blotting System (Merck) or SuperSignal West Femto (Thermo Fisher Scientific), depending on the protein to be assayed. Antibody against Notch1 (all forms; clone bTAN20) was obtained from the Developmental Studies Hybridoma Bank (DSHB) at the University of Iowa (DSHB, Iowa City, IA, USA). GAPDH (clone 14C10), Jagged1 (clone 28H8) and NOTCH1 intracellular domain (clone D3B8) were obtained from Cell Signaling (Cell Signaling Technology Inc., Beverly, MA, USA). Antibodies against TAGLN (clone #859112) and CNN1 (clone #836701) were from R&D Systems (R&D Systems, Inc. Minneapolis, MN, USA). Antibody against α-SMA (clone 1A4) was purchased from Sigma-Aldrich. Antibody against lamin B1 (LMNB1) was from Abcam (Cambridge, UK). […]

## si-JAG1-1: short interfering RNA targeting human JAG1 mRNA, 5′-GAAUGUGAGGCCAAACCUU[dT][dT]-3′ (SEQ ID NO:1) (sense GAAUGUGAGGCCAAACCUUTT; sugars from the 5' end r19 d2, backbone and methylation of C not given here)
[1]
  JAG1 expression levels (immunoblotting): able to reduce JAG1 expression levels

## si-JAG1-2: short interfering RNA targeting human JAG1 mRNA, 5′-CCUGUAACAUAGCCCGAAA[dT][dT]-3′ (SEQ ID NO:2); indicated as si-JAG1 throughout (sense CCUGUAACAUAGCCCGAAATT; sugars from the 5' end r19 d2, backbone and methylation of C not given here)
[1]
  JAG1 expression levels (immunoblotting): able to reduce JAG1 expression levels
[1]; presence of TGF-β1 2 ng/mL for 24 h, compared with si-JAG1-1
  JAG1 protein levels (immunoblotting): major reduction of JAG1 protein levels
[2]
  cell ability to contract type I collagen matrix after JAG1 silencing: reduced
[3]
  protein levels of α-SMA, CNN1, TAGLN, JAG1, NOTCH FL after JAG1 silencing: significant reduction of α-SMA, CNN1, TAGLN, JAG1 and unprocessed NOTCH1 receptor
